# Laboratory results from ChEMBL document CHEMBL5608141, “Identification of compartment-specific drug sensitivities in CRC organoid-stroma co-cultures” (2024).
# Key:
# Type in all cases: functional, Homo sapiens
# Parameters in all cases: dose or concentration left out as unconfirmed
# Colon cancer organoid [1] = experiment: Identification of compartment-specific drug sensitivities in O14 CRC organoid-stroma F14 CAF co-cultures. Organoid is transduced with Lucferase2-P2A-EGFP lentivirus, fibroblast with Renilla-dsRed lentivirus. Dual-Glo Luciferase assay is used to report viability data.
# Colon cancer organoid [2] = experiment: Identification of compartment-specific drug sensitivities in O06 CRC organoid-stroma F06 CAF co-cultures. Organoid is transduced with Lucferase2-P2A-EGFP lentivirus, fibroblast with Renilla-dsRed lentivirus. Dual-Glo Luciferase assay is used to report viability data.
# Colon cancer organoid [3] = experiment: Identification of compartment-specific drug sensitivities in O20 CRC organoid-stroma F20 CAF co-cultures. Organoid is transduced with Lucferase2-P2A-EGFP lentivirus, fibroblast with Renilla-dsRed lentivirus. Dual-Glo Luciferase assay is used to report viability data.
# [4] = Transduced with Lucferase2-P2A-EGFP lentivirus
# [5] = Transduced with Renilla-dsRed lentivirus
Compound,Cell Viability (Colon cancer organoid [1]; [4]) [%],Cell Viability (Colon cancer organoid [1]; [5]) [%],Cell Viability (Colon cancer organoid [2]; [4]) [%],Cell Viability (Colon cancer organoid [2]; [5]) [%],Cell Viability (Colon cancer organoid [3]; [4]) [%],Cell Viability (Colon cancer organoid [3]; [5]) [%]
C[C@H](NC(=O)Nc1cc2[nH]ncc2c(CO)n1)c1ccccn1 [ERKi-NC],81.1185,100.943,94.8975,86.1568,108.541,124.126
COc1cccc2c1C(=O)c1c(O)c3c(c(O)c1C2=O)CC(O)(C(=O)CO)CC3OC1CC(N)C(O)C(C)O1.Cl (stereo not given),3.454,89.9373,14.9439,235.56,5.3877,237.178
O=C(O)c1ccc(-c2coc3ncc(-c4ccccc4)cc23)cc1Cl,182.141,68.2046,84.9927,102.883,189.357,126.188
CC[C@H](CO)Nc1nc(NCc2ccccc2)c2ncn(C(C)C)c2n1 [SELICICLIB],121.256,106.182,93.234,112.199,126.177,75.3934
COc1cccc(CNC(=O)c2nc3scc(CN(C)Cc4ccccc4)c3c(=O)[nH]2)c1 [T-26f],126.414,118.487,112.096,76.7347,156.545,109.586
CCN(Cc1ccc(Cl)cc1)c1ncc(C(=O)NCCCN2CCCC2=O)c(NC2CCCC2)n1,127.363,88.0275,93.3549,154.26,67.2116,104.655
CC(=O)NCC(=O)N1[C@@H]2CC[C@H]1c1ccc(Nc3ncc(C(F)(F)F)c(NC4CCC4)n3)cc12 [PF-03814735],7.804,45.5161,12.0789,82.3636,4.585,155.761
CN[C@@H]1C[C@H]2O[C@@](C)([C@@H]1OC)n1c3ccccc3c3c4c(c5c6ccccc6n2c5c31)C(=O)NC4 [STAUROSPORINE],0.5717,0.4831,0.2458,0.5911,0.3702,0.5055
Cc1cc(-n2nc(Cc3cc(F)cc(C(F)(F)F)c3)nc2C)ccc1C(N)=O [TP-024],124.645,106.61,115.389,121.941,120.055,118.791
C[C@H](c1ccnc(Nc2nc3ccc(-c4cc(N(C)C)ncn4)cc3[nH]2)c1)N1CCN(C(=O)CC(F)(F)F)CC1 [BAY-985],130.529,136.274,137.072,142.411,129.711,125.86
Cn1nc(C(=O)NCc2ccc(C(=O)O)cc2)cc1-c1ccc2[nH]ccc2c1 [BI 4395],88.69,99.7693,119.737,69.3241,100.657,92.7545
Cc1ccccc1Oc1cc(-n2c(=O)cc(C(F)(F)F)[nH]c2=O)c2ccccc2c1Cl [BAY-069],126.47,121.899,128.819,153.89,84.1162,119.466
CC(=O)C1=C(C)N(c2cccc(C(F)(F)F)c2)C(=O)N[C@H]1c1ccc(C#N)nc1 [BAY-677],123.312,108.035,73.3465,89.4043,134.265,107.791
C[C@]1(O)C[C@@H](c2nc(-c3ccc4ccc(-c5ccccc5)nc4c3)c3c(N)nccn32)C1 [LINSITINIB],56.8923,65.041,53.0716,100.619,60.6188,65.9185
CN(C)C(=O)/C(C#N)=C/c1ccc(-c2nc3cnc4[nH]ccc4c3n2C2CCCCC2)o1,107.956,74.8679,57.9428,82.2998,75.2682,130.215
CCn1cc(-c2ccnc3[nH]c(-c4cccc(CN(C)C)c4)cc23)c(-c2ccc(NC(=O)N(C)C)cc2)n1 [GSK-1070916],13.7383,103.854,8.589,116.692,9.494,207.056
Cc1sc2c(c1C)C(c1ccc(Cl)cc1)=N[C@@H](CC(=O)OC(C)(C)C)c1nnc(C)n1-2,31.858,201.171,24.0633,301.325,11.1793,145.881
CNC(=O)c1cc(C(=O)N[C@H]2[C@@H]3COC[C@@H]32)cc2c1O[C@@H](CF)[C@@H]2c1ccccc1 [GSK943],96.5907,102.587,83.6271,130.888,107.286,108.354
Cc1nnc2c3ccccc3c(N[C@@H](C)[C@H](c3ccccc3)N(C)C)nn12,110.519,106.748,95.7989,115.114,82.8594,127.368
CC1=C(C)C(=O)C(C(C)(C)CC(=O)N(CCCCSC[C@H]2O[C@@H](n3cnc4c(N)ncnc43)[C@H](O)[C@@H]2O)Cc2cccc(-c3ccc(Cl)cc3)c2)=C(C)C1=O,65.9332,97.7144,117.447,138.552,100.369,114.813
C[C@@H]1CN(c2cc(-c3nn(C)c4ccc(OC5(C)CC5)cc34)ncn2)C[C@H](C)O1 [MLi-2-NC],144.766,104.291,55.8067,87.1439,112.711,86.6644
COc1c(C)cc(NC(=O)c2nn(Cc3ccc(F)cc3)c3c2CN(C(=O)c2ccc[nH]2)C[C@]3(C)C(N)=O)cc1C,104.772,92.7757,66.5012,112.674,107.405,95.1299
COc1ccc(COc2ccc(Cc3cnc(N)nc3N)cc2OC)cc1 [GW632580X],144.194,102.086,84.8428,83.7807,200.298,84.9331
Cc1ccc(NC(=O)Nc2cc(C(F)(F)F)ccc2F)cc1Nc1ccc2c(c1)NC(=O)/C2=C\c1ccc[nH]1,123.441,77.7474,46.1941,95.0963,98.8429,67.3177
Cc1c(Nc2ccc(S(=O)(=O)N3CCN(C)CC3)cc2F)nc2ccc(Nc3cnn(C4CC4)c3)cn2c1=O,108.37,91.7144,81.8172,120.859,118.006,135.679
Cc1cnc(-c2cc(Cl)ccc2F)cc1-n1c(=O)n(CC(N)=O)c2ccccc21 [Al11],90.2433,100.795,79.8154,66.9379,100.628,109.542
O=C(Nc1ccc(-c2ccnc(Nc3ccc(N4CCOCC4)cc3)n2)cc1)[C@@H]1CCCN1,129.164,79.5845,100.254,96.014,139.273,76.0213
CNc1nc(-c2ccc3c(N)n[nH]c3c2)cc(N2C[C@@H](C(=O)NC3CCCCC3)CC[C@H]2C)n1,65.7783,53.252,59.8926,53.4401,52.0118,121.574
CN(C)C(=O)c1ccc(-c2cc(C(=O)N[C@@H]3CCc4ccccc43)no2)cc1O,90.3054,109.902,113.879,93.2478,99.2292,104.475
CCc1cccc(CC)c1NC(=O)c1nn(C)c2c1CCc1cnc(Nc3ccc(C(=O)NC4CCN(C)CC4)cc3OC(F)(F)F)nc1-2,11.9525,117.182,8.756,150.393,94.5822,107.437
